{"source": "patent US20250230138A1", "about": "“COMPOUNDS HAVING A T-STRUCTURE FORMED BY AT LEAST FOUR CYCLES FOR USE IN THE TREATMENT OF CANCER AND OTHER INDICATIONS” (TheRas, Inc., priority 2022, published 2025)", "key": {"H1975-C797S CDX": {"system": "H1975-C797S CDX", "assay": "Anti-tumor activity in H1975-C797S CDX model", "format": "in vivo, mice", "conditions": "non-small cell lung, EGFR L858R, T790M, PIK3CA G118D, day 28", "description": "(§1) Two in vivo studies were conducted to assess the anti-tumor activity of Compound 58 as a monotherapy in CDX models with alterations in EGFR. Immunocompromised BALB/c nude or NOD/SCID female mice were implanted subcutaneously with A431 or H1975-C797S human tumor cells, respectively. When tumors reached a mean size of 180 to 200 mm^3, mice were randomized into treatment groups (10 mice per group) and dosed orally once per day with vehicle or 100 mg/kg Compound 58. Mouse tumor volumes were measured twice weekly until day 28. TGI, an indicator of anti-tumor effectiveness, was calculated for each treatment (T) versus control (C) group using the first day of dosing (0) and indicated measurement day (i) mean tumor volume measurements as described in Biological Example 8.\nTable 12 summarizes the monotherapy anti-tumor activity of Compound 58, a PI3Kα breaker, in two CDX models with EGFR alterations. The A431 CDX model harbors an EGFR amplification. For the H1975-C797S CDX model, the EGFR C797S mutation was engineered using CRISPR into the parental H1975 cell line, which harbors EGFR L858R and T790M mutations and a PIK3CA linker domain G118D mutation. The EGFR C797S mutation reduces binding of the third generation EGFR inhibitor osimertinib, so the H1975-C797S CDX model is resistant to osimertinib."}, "CAL27 CDX": {"system": "CAL27 CDX", "assay": "Anti-tumor activity in CAL27 CDX model", "format": "in vivo, mice", "conditions": "oral squamous cell, HER3 positive by flow cytometry, day 28", "description": "as §1, with “HER3.” for “EGFR.”, “nude” for “nude or NOD/SCID”, “CAL27” for “A431”, “FaDu” for “H1975-C797S”, “cells.” for “cells, respectively.”, “170” for “180”\nTable 11 summarizes the monotherapy anti-tumor activity of Compound 58, a PI3Kα breaker, in two CDX models with HER3 alterations. The CAL27 cell line was HER3+ by flow cytometry, and the FaDu CDX model harbors a HER3 D297H mutation."}, "[1]": {"system": "pAKT in H1975-C797S cells", "assay": "pAKT IC50 in H1975-C797S cancer cell line", "format": "cell-based", "conditions": "Homo sapiens, non-small cell lung, EGFR L858R, T790M, PIK3CA G118D", "description": "The pAKT inhibition of Compound 44 or Compound 58 in a diverse panel of 282 human tumor cell lines from different cancer indications with varied genetic backgrounds was evaluated to determine factors that may influence sensitivity and resistance (FIG. 2A). PI3K pathway signaling in a 2D culture system was assessed by measuring pAKT (Ser473) protein levels following 4 hours of treatment with nine concentrations of Compound 44 or Compound 58 by homogeneous time resolved fluorescence (HTRF). The pAKT IC50 of each cell line was calculated using GraphPad prism software."}}, "data": [{"smiles": "C=CC(=O)N1CCc2nc(-c3nc(-c4ccc5c(c4)CCNC5)c4ccsc4c3-c3ccc(F)cc3OCCOC)sc2C1", "note": "[Compound 58, 1-[2-[7-[4-fluoro-2-(2-methoxyethoxy)phenyl]-4-(1,2,3,4-tetrahydroisoquinolin-6-yl)thieno[3,2-c]pyridin-6-yl]-6,7-dihydro-4H-thiazolo[5,4-c]pyridin-5-yl]prop-2-en-1-one]", "values": [{"measurement": "TGI (100 mg/kg Compound 58, QD, po)", "setting": "H1975-C797S CDX", "result": 64, "unit": "%"}, {"measurement": "TGI (100 mg/kg Compound 58, QD, po)", "setting": "CAL27 CDX", "result": 90, "unit": "%"}, {"measurement": "IC50", "setting": "[1]", "result": 26, "unit": "nM"}]}]}
